Assay results: publication PMC8401404 (Molecules, 2021)
Structures can show the parent of a compound that is named as a salt.

Assays:
A549 [1] = assay: MTS cytotoxicity assay, 2D cell culture; settings: read-out: Cytotoxicity Assay IC50 ± SD, A549 2D, 72 h, MTS, n = 2
Method: (§1) MTS assay gives us information about the number of living cells, in this case, metabolically active cells, whereas the BrdU proliferation assay gives a measure of the cell population in active division phase. Both assays were performed in 2D and 3D assay formats. For the 2D cell assay format, we used classic two-dimensional in vitro assays and as a 3D assay we used a hanging drop proliferation cell assay as previously described. We explored the activity of compounds on three human lung cancer cell lines, A549, HCC827 and NCI-H358. The compound activity was also tested on human lung fibroblast cell line MRC-5. A two-dimensional in vitro viability assay was performed on the MRC-5 cell line to see if tested compounds are cytotoxic on normal cell lines in low concentrations. […] 7.1.
(§2) Test compounds were synthesized by a research group at the Department of Organic Chemistry, Faculty of Chemical Engineering and Technology, University of Zagreb. […] Compounds were diluted 1:3. We transferred 500 nL (for 2D cell culture) or 400 nL (for 3D cell culture) of the compound from a mother plate to test plate by using Mosquito (TTP labtech). DMSO percentage in test concentrations was 0.5–1.0%. Starting concentration of the test compounds and standard compound doxorubicin was 50 µM (2D cell culture) or 100 µM (3D cell culture).
(§3) Cells were grown in 96-well cell star polystyrene plates. We seeded 10,000 cells/well in wells 4 h prior to the treatment with different compounds concentrations and incubated for 72 h. A cell viability assay was performed according to the manufacturer’s instructions, using CellTiter 96 aqueous solution, MTS kit (Promega, Madison, WI, USA). After 0.5–2 h of cell incubation with MTS in 2D cell culture, the plates were read using PE EnVision absorbance at 490 nm.
(§4) Calculation of IC50 data, curves and QC analysis was performed by using Excel tools and GraphPadPrism software (La Jolla, CA, USA), v. […] QC criteria parameters (Z’, S:B, R2, HillSlope) were checked for every IC50 curve.

HCC827 [2] = assay: MTS cytotoxicity assay, 2D cell culture; settings: Homo sapiens, HCC827, 72 h, read-out: Cytotoxicity Assay IC50 ± SD; HCC827 2D
Method: as §1, §2, §3, §4

NCI-H358 [3] = assay: MTS cytotoxicity assay, 2D cell culture; settings: Homo sapiens, NCI-H358, 72 h, read-out: Cytotoxicity Assay IC50 ± SD; NCI-H358 2D
Method: as §1, §2, §3, §4

A549 [4] = assay: Cytotoxicity (viability) assay, 3D hanging drop cell culture; settings: Homo sapiens, A549, 72 h, read-out: Cytotoxicity Assay IC50 ± SD; A549 3D
Method: as §1, §2
(§5) Cells were grown in 96-well Perfecta 3D hanging drop plates 5000 cell/well for 4 days until spheres were formed (and checked under the microscope). After sphere formation cells were treated with compounds followed by 72 h incubation. Cell viability assay was performed according to the manufacturer’s instructions, using CellTiter GLO 3D for 3D cell culture (Promega); cell incubation was 5 min on the shaker followed by 25 min incubation in the dark. Plates were read using PE EnVision luminescence.
as §4

HCC827 [5] = assay: as above; settings: Homo sapiens, HCC827, 72 h, read-out: Cytotoxicity Assay IC50 ± SD; HCC827 3D
Method: as §1, §2, §5, §4

NCI-H358 [6] = assay: as above; settings: Homo sapiens, NCI-H358, 72 h, read-out: Cytotoxicity Assay IC50 ± SD; NCI-H358 3D
Method: as §1, §2, §5, §4

[7] = MTS cytotoxicity assay, 2D cell culture, normal lung fibroblasts; settings: human, MRC-5 normal lung fibroblasts, 2D culture
Method: as §1, §2, §3, §4

A549 [8] = assay: BrdU proliferation assay, 2D cell culture; format: cell-based, human; settings: Homo sapiens, A549, 2D, BrdU, n = 2, read-out: Proliferation Assay IC50 ± SD
Method: as §1, §2, §3
(§6) Proliferation assay was performed using Cell Proliferation ELISA, BrdU (Sigma, St. Louis, MO, USA). Briefly, 48 h hours after compound addition, 10 µM of BrdU was added to each well and incubated for the following 24 h. After incubation, a single cell suspension was made for 3D cell culture in the new 96-well plate. Plates were centrifuged and supernatants were removed from each plate (for 2D and 3D cell culture) followed by 60 min incubation at 60 °C. The rest of the proliferation assay was performed according to the manufacturer’s instructions.
as §4

HCC827 [9] = assay: BrdU proliferation assay, 2D cell culture; format: cell-based, human; settings: Homo sapiens, HCC827, 2D, BrdU, n = 2, read-out: Proliferation Assay IC50 ± SD
Method: as §1, §2, §3, §6, §4

NCI-H358 [10] = assay: BrdU proliferation assay, 2D cell culture; format: cell-based, human; settings: Homo sapiens, NCI-H358, 2D, n = 2, read-out: Proliferation Assay IC50 ± SD
Method: as §1, §2, §3, §6, §4

A549 [11] = assay: BrdU proliferation assay, 3D hanging drop cell culture; format: cell-based, human; settings: Homo sapiens, A549, 3D, BrdU, n = 2, read-out: Proliferation Assay IC50 ± SD
Method: as §1, §2, §5, §6, §4

HCC827 [12] = assay: as above; format: cell-based, human; settings: Homo sapiens, HCC827, 3D, BrdU, n = 2, read-out: Proliferation Assay IC50 ± SD
Method: as §1, §2, §5, §6, §4

NCI-H358 [13] = assay: as above; format: cell-based, human; settings: Homo sapiens, NCI-H358, 3D, n = 2, read-out: Proliferation Assay IC50 ± SD
Method: as §1, §2, §5, §6, §4

E. coli ATCC 25922 = assay: Broth microdilution testing (CLSI); format: cell-based, Escherichia coli; settings: Escherichia coli, ATCC25922; broth microdilution, 16–24h at 37 °C; read-out: MIC E. coli ATCC 25922
Method: (§7) Broth microdilution testing was performed according to CLSI (Clinical Laboratory Standards Institute) guidelines. MIC (minimal inhibitory concentration) value was defined as the last tested concentration of compound at which there is no visible growth of bacteria. […] Clinical and Laboratory Standards Institute (CLSI) guidelines.

S. aureus ATCC 29213 = assay: Broth microdilution testing (CLSI); format: cell-based, Staphylococcus aureus; settings: Staphylococcus aureus, ATCC29213, broth microdilution, 16–24h at 37 °C; read-out: MIC S. aureus ATCC 29213
Method: as §7

S. cerevisiae ATCC 7752 = assay: Broth microdilution testing (CLSI); format: cell-based, Saccharomyces cerevisiae; settings: Saccharomyces cerevisiae, ATCC7752; broth microdilution, 16–24h at 37 °C; read-out: MIC S. cerevisiae ATCC 7752
Method: as §7

ctDNA = assay: Thermal melting experiments; format: binding, calf; settings: r = [compound]/[polynucleotide] = 0.3, pH 7.0, sodium cacodylate buffer I = 0.05 mol dm^−3; error ±0.5 °C
Text: (§8) The thermal stability of helices is usually affected by the non-covalent binding of small molecules to double-stranded nucleic acids. We determined the ΔTm value (the difference between the Tm value of free polynucleotide and a complex with a small molecule) for complexes of selected compounds with ctDNA and an alternating polynucleotide, poly(dAdT)2. […] Because of this, we determined ΔTm value with non-alternating AT-DNA, poly dA-poly dT as well.

poly dA-poly dT = assay: Thermal melting experiments; format: binding; settings: r = 0.3, pH 7.0, sodium cacodylate buffer I = 0.05 mol dm^−3; error ±0.5 °C
Text: as §8

poly(dAdT)2 = assay: Thermal melting experiments; format: binding; settings: r = 0.3, pH 7.0, sodium cacodylate buffer I = 0.05 mol dm^−3; error ±0.5 °C
Text: as §8

calf thymus DNA (ctDNA) = assay: Fluorimetric titrations with ctDNA; settings: fluorescence titrations, Scatchard equation, pH 7.0, sodium cacodylate buffer I = 0.05 mol dm-3
Method: The UV/vis spectra were recorded on a Varian Cary 100 Bio spectrophotometer, CD spectra on JASCO J815 spectrophotometer and fluorescence spectra on a Varian Cary Eclipse spectrophotometer.
Spectrophotometric titrations were performed at pH = 7 (I = 0.05 mol dm^−3, sodium cacodylate buffer) by adding portions of polynucleotide solution into the solution of the studied compound for fluorimetric experiments and CD experiments were performed by adding portions of the compound stock solution into the solution of a polynucleotide. In fluorimetric experiments excitation wavelengths of λexc = 350, 370 and 390 nm were used to avoid the inner filter effect caused due by increasing absorbance of the polynucleotide (Figures S3 and S4). Emission was collected in the range λem = 400–600 nm (SI).
aTitration data were processed using Scatchard equation, correlation coefficients were >0.97-
0.99 for all calculated Ks

[14] = Solubility in water (stock solutions)
[15] = system: poly(dAdT)2 (DNA, polymer) AT; assay: UV thermal melting at 260 nm; settings: Na+ (sodium cacodylate, I = 0.05 M), pH 7.0, r = [compound]/[polynucleotide phosphate] = 0.3, error ±0.5, per base
[16] = system: poly dA-poly dT (DNA, polymer) A/T; assay: UV thermal melting at 260 nm; settings: Na+ (sodium cacodylate, I = 0.05 M), pH 7.0, r = [compound]/[polynucleotide phosphate] = 0.3, error ±0.5, per base
[17] = system: poly(dAdT)2 (DNA, polymer) AT; assay: CD titration; settings: Na+ (sodium cacodylate, I = 0.05 M), pH 7.0, 25 °C, polynucleotide 3.0 × 10^-5 M

Compound	IC50 (A549 [1]; Homo sapiens, A549, 72 h) [µM]	IC50 (HCC827 [2]) [µM]	IC50 (NCI-H358 [3]) [µM]	IC50 (A549 [4]) [µM]	IC50 (HCC827 [5]) [µM]	IC50 (NCI-H358 [6]) [µM]	IC50 at 72 h [7] [µM]	IC50 (A549 [8]) [µM]	IC50 (HCC827 [9]) [µM]	IC50 (NCI-H358 [10]) [µM]	IC50 (A549 [11]) [µM]	IC50 (HCC827 [12]) [µM]	IC50 (NCI-H358 [13]) [µM]	MIC (E. coli ATCC 25922) [µM]	MIC (S. aureus ATCC 29213) [µM]	MIC (S. cerevisiae ATCC 7752) [µM]	ΔTm ctDNA (ctDNA) [°C]	ΔTm Poly dA-poly dT (poly dA-poly dT) [°C]	ΔTm poly (dAdT)2 (poly(dAdT)2) [°C]	solubility [14] [µM]	also measured
CC(C)NC(=N)c1ccc2nc(-c3ccc(-c4ccc([N+](=O)[O-])cc4)o3)sc2c1 [Compound 5, 2-[5-(4-Nitrophenyl)furan-2-yl]-6-N-isopropilamidinobenzothiazole hydrochloride]	8.76 ± 1.69	19.3 ± 1.72	9.97 ± 0.59	26.4 ± 13.4	43.6 ± 6.45	14.8 ± 0.57	21.7 ± 0.51	4.76 ± 1.03	13.7 ± 3.13	3.56 ± 0.18	65.9 ± 3.66	14.7 ± 13.4	14.3 ± 0.84	> 100	50	12.5	2.5	5.5	4.8	3000	Binding constants (logKs) with ctDNA (calf thymus DNA (ctDNA)): 6.4
CC(C)NC(=N)c1ccc2nc(-c3ccc(-c4ccc(Cl)cc4)o3)sc2c1 [Compound 8, 2-[5-(4-Chlorophenyl)furan-2-yl]-6-N-isopropilamidinobenzothiazole hydrochloride]	6.75 ± 0.19	6.26 ± 0.33	6.48 ± 0.11	9.31 ± 0.78	20.5 ± 8.63	16 ± 9.38	9.88 ± 2.38	8.78 ± 3.62	13.5 ± 0.81	6.68 ± 0.15	19.9 ± 2.19	17.8 ± 4.24	11.3 ± 0.49	> 100	12.5	6.25	1.7	4.3	3.6	3000	IC50 (A549 [1]): 6.74 ± 0.19 µM; Binding constants (logKs) with ctDNA (calf thymus DNA (ctDNA)): 6.3
Cl.O=[N+]([O-])c1ccc(-c2ccc(-c3nc4ccc(C5=NCCN5)cc4s3)o2)cc1 [Compound 6, 6-(4,5-Dihydro-1H-imidazol-2-yl)-2-[5-(4-nitrophenyl)furan-2-yl]benzothiazole hydrochloride]	2.12 ± 0.21	5.13 ± 0.97	0.85 ± 0.05	4.01 ± 0.95	7.02 ± 3.25	1.73 ± 0.01	3.11 ± 0.26	2.27 ± 0.13	16.7 ± 9.39	1.1 ± 0.001	5.52 ± 0.1	7.63 ± 5	2.36 ± 1.17	> 100	> 100	1.6	3.2	5.6	3.6	1720	melting point: 287 to 292 °C; ΔTm [15]: 3.6 °C; ΔTm [16]: 5.6 °C
CC(C)NC(=N)c1ccc2nc(-c3ccc(-c4ccc([N+](=O)[O-])cc4)o3)sc2c1	–	–	–	–	–	–	–	–	–	–	–	–	–	–	–	–	–	–	–	–	ΔTm [15]: 4.8 °C; ΔTm [16]: 5.5 °C
CC(C)NC(=N)c1ccc2nc(-c3ccc(-c4ccc(Cl)cc4)o3)sc2c1	–	–	–	–	–	–	–	–	–	–	–	–	–	–	–	–	–	–	–	–	binding [17]: yes; ΔTm [15]: 3.6 °C; ΔTm [16]: 4.3 °C
